Consider eleven compounds from patent publication US20200199102A1, “COMPOUNDS THAT PARTICIPATE IN COOPERATIVE BINDING AND USES THEREOF” (Revolution Medicines, Inc., priority 2017, published 2020).

In one test the target is T1, Cyclophilin A (Homo sapiens, UniProt P62937).
T1 construct: made in house
The test is described as follows: AlphaLISA inhibition of binding of biotinylated Cyclosporin A to FLAG tagged Cyclophilin A. The following applies: for % signal: AlphaLISA signal; for % signal / % inhibition of CsA binding to Cyclophilin A: test concentration not given; for IC50: read-out: IC50 value of CsA binding to Cyclophilin A. The gist of the method: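 Inhibition of biotin-CsA binding to FLAG-tagged Cyclophilin A read by AlphaLISA (ex 680, em 615 nm). Working stocks were 6 nM biotinylated CsA and 25 nM FLAG-CypA; beads and compound were combined first for 30 min, then protein added for 60 min, all at room temperature in the dark, with DMSO and cyclosporin A controls.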

The next test deals with HeLa-CyclophilinA cells. The test is described as follows: Biosensor cell permeability assay (cyclophilin destabilizing mutant), HeLa-CyclophilinA cells. In kind it is cell-based. Conditions: 72 hrs. On the procedure: (§1) Cell permeability of compounds can be determined using the following protocol.
(§2) This protocol utilizes a modified FKBP or cyclophilin destabilizing mutant to determine the bioactivity of FKBP binding compounds or cyclophilin binding compounds in whole cell assay.
(§3) DMEM, DMEM without Phenol Red, 10% FBS, 1× Sodium Pyruvate, 1× Glutamax. Add 125 μl of media with compound per well.
(§4) Plate HeLa-FKBP12 cells (for FKBP binding compounds) or HeLa-CyclophilinA cells (for cyclophilin binding compounds) and seed overnight at 5 k/well (approximately ˜18 hrs.). Using a multi-channel pipet, take out the old media and add ˜125 ul of new media with compounds. Compounds are diluted using DMEM without Phenol Red, 10% FBS, 1× Sodium Pyruvate, 1× Glutamax. Add 125 μL of media with compound per well. Cells are treated with compounds at concentration: 30, 10, 3.33, 1.11, 0.37, 0.12, 0.04 and 0.013 uM. Time points are taken at 72 hrs and plate read using plate reader with excitation/emission: 575/620.
(§5) Cell binding/permeability is calculated in fold-change (Total RFU of treated samples/total RFU of DMSO treated samples or total RFU above background (Total RFU minus total RFU of DMSO treated samples).

In a further test the test system is HeLa-FKBP12 cells. The test is described as follows: Biosensor cell permeability assay (FKBP destabilizing mutant), HeLa-FKBP12 cells. In kind it is cell-based. Conditions: 72 hrs. Here is the method: as §1, §2, §3, §4, §5
Test [1] concerns the target T2, FKBP12 (Homo sapiens, UniProt P62942). The test is described as follows: AlphaLISA inhibition of binding of biotinylated FK506 to FLAG tagged FKBP12. The following applies: read-out: Binding affinity to FKBP12 (by displacement of FK506). Also on record: made in house. The source says: The binding of compounds of the invention to FKBP12 can be determined using the following protocol.
This protocol utilizes Perkin Elmers AlphaLISA technology platform to detect FKBP binders by measuring the inhibition of binding of biotinylated FK506 to FLAG tagged FKBP12.
10×TBST Buffer (Boston BioProducts IBB-181), Biotinylated FK506 (in-house), FLAG tagged FKBP (in-house); anti-FLAG Donor beads (PerkinElmer AS103) and Streptavidin Acceptor beads (PerkinElmer AL125); Compounds in DMSO (in-house), FK506.
Add 20 uL of 12.5 nM FKBP-FLAG working stock to each well of the 96-well plate. Add 1 uL of test compound (100% DMSO) to each well of the plate using the Janus MTD head and P20 tips (except control wells). Add 1 uL of DMSO to negative control wells and 1 uL of 50 uM FK506 solution to positive control wells. In the dark, add 20 uL of combined Donor/Acceptor beads to each well. Incubate in the dark for 30 minutes at room temperature. In the dark, add 10 uL of 5 nM biotinylated FK506 working stock to each well. Incubate in the dark for 60 minutes at room temperature. Protect plate from light until reading on Biotek Synergy2 Plate Reader; Alphalisa 96-well protocol (680 excitation/615 emission).
In general terms: Alpha assays give light when donor and acceptor beads are brought close together.

In test [2] the target is T2, FKBP12. The test is described as follows: SPR binding of compound (analyte) to immobilized FKBP12. For orientation: In SPR one partner is held on a chip, and binding of the other changes the refractive index at the surface.
Procedure: This protocol utilizes Surface Plasmon Resonance (SPR) as a method to determine kinetics (KD, Ka, Kd) for the binding of compound (analyte) to immobilized FKBP12 (ligand).
Compound in 100% DMSO (in-house), 10×HBS-P+ buffer (GE Healthcare BR-1006-71), Assay buffer (1×HBS-P+ buffer, 1% DMSO), 12×HIS tagged FKBP12 (in-house).
Experiments are performed at 25° C. Stock solution of 12×HIS tagged FKBP12 is diluted to 100 nM in assay buffer (1% DMSO final). Approximately 500-600 RU of FKBP12 is immobilized on one of two flow cells of an activated NTA chip. The second flow cell is not activated as a reference for non-specific interaction of the analyte to the sensor chip. Various concentrations of compound (1 nM-1 μM range), serially diluted into the same assay buffer (1% DMSO final), are injected onto the FKBP12 surface and reference surface at a flow rate of 10 μl/min. The surface is regenerated between analyte injections with 350 mM EDTA.
The BiaEvaluation software program is used for data fitting. All data is reference subtracted against both the reference flow cell and a buffer injection. For kinetic analyses, data is locally fit to a 1:1 interaction model.
Experiments are performed at 25° C. Stock solution of 12×HIS tagged FKBP12 is diluted to 100 nM in assay buffer (1% DMSO final). Approximately 500-600 RU of FKBP12 is immobilized on one of two flow cells of an activated NTA chip. The second flow cell is not activated as a reference for non-specific interaction of the analyte to the sensor chip.
Test [3] addresses T3, CEP250 (Homo sapiens, UniProt Q9BV73).
T3 construct: CEP25011.4 (residues 2134-2231) (in-house); made in house
The test is described as follows: ITC binding of FKBP12-compound binary complexes to CEP250. The following applies: FKBP12 10 μM + ligand 20 μM in cell, 298 K; for Kd: calculated from Ka = 1/Kd.

Test [4] concerns the target T4, CEP250 (Homo sapiens, UniProt P62942+Q9BV73).
T4 construct: CEP25011.4 (residues 2134-2231) (in-house); made in house
The test is described as follows: Crystal structure analysis of FKBP12-compound-CEP250 ternary complexes. The following applies: FKBP12-compound-CEP250 crystal structure. On the procedure: This protocol describes the crystallization and structure determination method for structures of FKBP12-Compound 2-CEP250 and FKBP12-F11-CEP250 ternary complexes.
A 3:1 molar excess of FKBP12-F2 or FKBP12-F11 binary complex is added to CEP25011.4 and incubated at 4° C. overnight to complete ternary complex formation. Pure ternary complex is isolated by gel filtration purification on a Superdex 200 column in 12.5 mM HEPES pH 7.4, 75 mM NaCl. Purified complex (at 10-20 mg/ml) is subjected to crystallization at 22° C. using sitting drop vapor diffusion. FKBP12-F2-CEP250 crystals grow in a well solution containing 0.2 M sodium malonate, 0.1 M HEPES 7.0, 21% PEG 3350. FKBP12-F11-CEP250 crystals grow in a well solution containing 0.1 M Tris pH 8.5, 0.2 M trimethylamine N-oxide, 22-24% PEG2000 MME. For data collection crystals are transferred to a solution containing mother liquor supplemented with 20-25% glycerol, and then frozen in liquid nitrogen. Diffraction datasets are collected at the Advanced Photon Source (APS) and processed with the HKL program. Molecular replacement solutions are obtained using the program PHASER in the CCP4 suite, using the published structure of FKBP12 (PDB-ID 1FKD) as a search model. Subsequent model building and refinement are performed according to standard protocols with the software packages CCP4 and COOT.

Read-outs that look alike come from different tables or passages of the source.

T2 sequence (P62942 whole entry, species assumed): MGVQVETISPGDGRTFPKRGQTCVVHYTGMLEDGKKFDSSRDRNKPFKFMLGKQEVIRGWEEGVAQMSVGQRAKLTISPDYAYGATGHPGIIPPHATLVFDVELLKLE
T1 sequence (P62937 whole entry, species assumed): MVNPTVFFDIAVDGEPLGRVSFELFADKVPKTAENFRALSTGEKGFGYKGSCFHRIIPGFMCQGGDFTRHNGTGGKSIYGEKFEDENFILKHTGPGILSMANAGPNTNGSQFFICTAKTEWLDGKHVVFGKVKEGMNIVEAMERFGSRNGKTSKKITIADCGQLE
T4 sequence (Q9BV73 2134-2231): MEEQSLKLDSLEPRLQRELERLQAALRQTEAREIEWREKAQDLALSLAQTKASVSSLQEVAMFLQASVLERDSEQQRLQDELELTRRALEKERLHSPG
T4 sequence (P62942 whole entry, the tested form may be a part): as the sequence (P62942 whole entry, species assumed) above

`C/C=C/C[C@@H](C)[C@@H](O)[C@H]1C(=O)N[C@@H](CC)C(=O)N(C)CC(=O)N(C)CC(=O)N[C@@H](C(C)C)C(=O)N(C)[C@@H](CC(C)C)C(=O)N[C@@H](C)C(=O)N[C@H](C)C(=O)N(C)[C@@H](CC(C)C)C(=O)N(C)[C@@H](CC(C)C)C(=O)N(C)[C@@H](C(C)C)C(=O)N1C` [Compound C37]: on Cyclophilin A, the “% signal” value is 1.56%, the IC50 is < 2 µM and the “% inhibition of CsA binding to Cyclophilin A” value (from here on “% inhibition of CsA binding”) amounted to 98.44%. Further, in the test on HeLa-CyclophilinA cells, the IC50 was > 3 µM.

On to `C/C=C/C[C@@H](C)[C@@H](O)[C@H]1C(=O)N[C@@H](CC)C(=O)N(C)CC(=O)N(C)[C@@H]([C@@H](C)CC)C(=O)N[C@@H](C(C)C)C(=O)N(C)[C@@H](CC(C)C)C(=O)N[C@@H](C)C(=O)N[C@H](C)C(=O)N(C)[C@@H](CC(C)C)C(=O)N(C)[C@@H](CC(C)C)C(=O)N(C)[C@@H](C(C)C)C(=O)N1C` [Compound C33], for which, on Cyclophilin A, the “% signal” value is −0.08%, the IC50 is < 2 µM and the “% inhibition of CsA binding” value is 100.08%. For the same compound, the IC50 in the test with HeLa-CyclophilinA cells was < 3 µM.

As to `CC(=CC1C=CC(O)C(O)C1)C=C(C)C1CC(O)CC1C(C)(O)C=CC(O)CC=CCC(C)C1OC(O)(CC(=O)N2CCCCC2C(=O)O)C(C)CC1C` (centres unmarked) [Compound F23], the IC50 in the test with HeLa-FKBP12 cells is > 1 µM; on FKBP12 [1] it was 4.69 µM.

Take `C/C=C/C[C@@H](C)[C@@H](O)[C@H]1C(=O)N[C@@H](CC)C(=O)N(C)CC(=O)N(C)[C@@H]([C@@H](C)O)C(=O)N[C@@H](C(C)C)C(=O)N(C)[C@@H](CC(C)C)C(=O)N[C@@H](C)C(=O)N[C@H](C)C(=O)N(C)[C@@H](CC(C)C)C(=O)N(C)[C@@H](CC(C)C)C(=O)N(C)[C@@H](C(C)C)C(=O)N1C` [Compound C38]: on Cyclophilin A, the “% signal” value was determined as 1.57%, the IC50 is < 2 µM and the “% inhibition of CsA binding” value stood at 98.43%. Also, the IC50 in the test on HeLa-CyclophilinA cells is < 3 µM.

What is called Kd is the concentration at which binding is half-saturated. Turning to `CCC(Cc1ccccc1)C1C=CCC=CCC(C)C(O)C(C)C2CCC(C)C(O)(CC(=O)N3CCCCC3C(=O)O1)O2` (centres unmarked) [Compound F1], at FKBP12 [2] (read-out: SPR affinity to FKBP12: KD, 25° C., Table 7), the Kd was 0.0715 µM. In addition, on FKBP12 [1], the IC50 was found to be 0.355 µM.

Regarding `C/C=C/C[C@@H](C)[C@@H](O)[C@H]1C(=O)N[C@@H](CC)C(=O)N(C)CC(=O)N(C)[C@@H](CCCC)C(=O)N[C@@H](C(C)C)C(=O)N(C)[C@@H](CC(C)C)C(=O)N[C@@H](C)C(=O)N[C@H](C)C(=O)N(C)[C@@H](CC(C)C)C(=O)N(C)[C@@H](CC(C)C)C(=O)N(C)[C@@H](C(C)C)C(=O)N1C` [Compound C43], on Cyclophilin A, the “% signal” value is recorded as 0.29%, the IC50 is < 2 µM and the “% inhibition of CsA binding” value was 99.71%. Besides, the IC50 in the test on HeLa-CyclophilinA cells was < 3 µM.

Take `C/C=C/C[C@@H](C)[C@@H](O)[C@H]1C(=O)N[C@@H](CC)C(=O)N(C)CC(=O)N(C)[C@H](C)C(=O)N[C@@H](C(C)C)C(=O)N(C)[C@@H](CC(C)C)C(=O)N[C@@H](C)C(=O)N[C@H](C)C(=O)N(C)[C@@H](CC(C)C)C(=O)N(C)[C@@H](CC(C)C)C(=O)N(C)[C@@H](C(C)C)C(=O)N1C` [Compound C35]: on Cyclophilin A, the “% signal” value is listed as 0.89%, the IC50 is < 2 µM and the “% inhibition of CsA binding” value is given as 99.11%. Also, the IC50 with HeLa-CyclophilinA cells is > 3 µM.

Regarding `C/C=C/C[C@@H](C)[C@@H](O)[C@H]1C(=O)N[C@@H](CC)C(=O)N(C)CC(=O)N(C)[C@@H](CCC)C(=O)N[C@@H](C(C)C)C(=O)N(C)[C@@H](CC(C)C)C(=O)N[C@@H](C)C(=O)N[C@H](C)C(=O)N(C)[C@@H](CC(C)C)C(=O)N(C)[C@@H](CC(C)C)C(=O)N(C)[C@@H](C(C)C)C(=O)N1C` [Compound C44], on Cyclophilin A, the “% signal” value was −0.07%, the IC50 was < 2 µM and the “% inhibition of CsA binding” value is given as 100.07%. The IC50 in the test with HeLa-CyclophilinA cells was < 3 µM.

`CC[C@H](Cc1ccccc1)[C@@H]1CCCCCC[C@@H](C)[C@H](O)[C@@H](C)[C@@H]2CC[C@@H](C)C(=O)C(O)(O2)C(=O)N2CCCC[C@H]2C(=O)O1` [Compound F11, (2S)-1-((4R,7S)-7-((2R,3S,4R,11S,12R)-12-benzyl-3,11-dihydroxy-4-methyltetradecan-2-yl)-2-hydroxy-4-methyl-3-oxooxepane-2-carbonyl)piperidine-2-carboxylic acid C-11 Lactone] showed a Kd at FKBP12 [2] (KD, Example 10, 25° C., 1:1 interaction model) of 0.0156 µM. Binding at FKBP12 [2] (SPR affinity to FKBP12: KD, 25° C., Table 7) was characterised by a dissociation constant (Kd) of 0.0215 µM. Besides, on CEP250 [3] (CEP25011.4 68 μM in syringe), the ΔG was −40.36 kJ*mol −mol−1, the ΔH is recorded as −47.78 kJ*mol −mol−1, the “−T*ΔS” value is 7.41 kJ*mol −mol−1 and the Kd was 0.08 µM. On CEP250 [3] (CEP25029.4 118 μM in syringe), the ΔG is reported as −36.74 kJ*mol −mol−1, the ΔH is listed as −58.48 kJ*mol −mol−1, the “−T*ΔS” value was found to be 21.73 kJ*mol −mol−1 and the Kd was 0.36 µM. Also, on CEP250 [4], the “buried surface area of CEP250 contributed by FKBP12” value came out at 590 Å^2, the “total buried surface area of CEP250” value is listed as 831 Å^2 and the “total buried surface area of the ternary complex” value was 1648 Å^2. Besides, on FKBP12 [1], the IC50 is 0.00051 µM.

In the case of `C/C=C/C[C@@H](C)[C@@H](O)[C@H]1C(=O)N[C@@H](CC)C(=O)N(C)CC(=O)N(C)[C@@H](Cc2ccc(O)cc2)C(=O)N[C@@H](C(C)C)C(=O)N(C)[C@@H](CC(C)C)C(=O)N[C@@H](C)C(=O)N[C@H](C)C(=O)N(C)[C@@H](CC(C)C)C(=O)N(C)[C@@H](CC(C)C)C(=O)N(C)[C@@H](C(C)C)C(=O)N1C` [Compound C39], at Cyclophilin A, the “% signal” value is on record as 3.78%, the IC50 is < 2 µM and the “% inhibition of CsA binding” value is recorded as 96.22%. Moreover, the IC50 in the test on HeLa-CyclophilinA cells is < 3 µM.

`C/C=C/C[C@@H](C)[C@@H](O)[C@H]1C(=O)N[C@@H](CC)C(=O)N(C)CC(=O)N(C)[C@H](C(C)C)C(=O)N[C@@H](C(C)C)C(=O)N(C)[C@@H](CC(C)C)C(=O)N[C@@H](C)C(=O)N[C@H](C)C(=O)N(C)[C@@H](CC(C)C)C(=O)N(C)[C@@H](CC(C)C)C(=O)N(C)[C@@H](C(C)C)C(=O)N1C` [Compound C42]: at Cyclophilin A, the “% signal” value came out at 1.26%, the IC50 is < 2 µM and the “% inhibition of CsA binding” value is reported as 98.74%. For the same compound, the IC50 in the test on HeLa-CyclophilinA cells was > 3 µM.
